Assay results reported in ChEMBL document CHEMBL3232987, “Investigation of Ugi-4CC derived 1H-tetrazol-5-yl-(aryl) methyl piperazinyl-6-fluoro-4-oxo-1,4-dihydroquinoline-3-carboxylic acid: synthesis, biology and 3D-QSAR analysis” (Eur J Med Chem, 2014).
Converted amounts (≈) assume the structure as drawn.

Tests used:
Staphylococcus aureus [1] = experiment: Antibacterial activity against Staphylococcus aureus ATCC 29213 by NCCLS two-fold dilution method; format: functional
Staphylococcus aureus [2] = experiment: Antibacterial activity against Staphylococcus aureus ATCC 29213 after 24 hrs by spectrophotometric analysis; format: functional, organism-based; conditions: Staphylococcus aureus, ATCC 29213, 24 h; for IC50: read-out: IC50
Staphylococcus aureus [3] = experiment: Antibacterial activity against gentamicin-resistant Staphylococcus aureus ATCC 33592 by NCCLS two-fold dilution method; format: functional
Staphylococcus aureus [4] = experiment: Antibacterial activity against methicillin-resistant Staphylococcus aureus ATCC 700699 by NCCLS two-fold dilution method; format: functional
Staphylococcus aureus [5] = experiment: Antibacterial activity against Staphylococcus aureus ATCC 25923 by NCCLS two-fold dilution method; format: functional; conditions: for MIC: Staphylococcus aureus, ATCC 25923
Staphylococcus aureus [6] = experiment: Antibacterial activity against gentamicin-resistant Staphylococcus aureus ATCC 33592 after 24 hrs by spectrophotometric analysis; format: functional, organism-based; conditions: Staphylococcus aureus, ATCC 33592, 24 h; for IC50: read-out: IC50
Staphylococcus aureus [7] = experiment: Antibacterial activity against methicillin-resistant Staphylococcus aureus ATCC 700699 after 24 hrs by spectrophotometric analysis; format: functional, organism-based; conditions: Staphylococcus aureus, ATCC 700699, 24 h; for IC50: read-out: IC50
Staphylococcus aureus [8] = experiment: Antibacterial activity against Staphylococcus aureus ATCC 25923 after 24 hrs by spectrophotometric analysis; format: functional, organism-based; conditions: Staphylococcus aureus, ATCC 25923, 24 h; for IC50: read-out: IC50
L929 [9] = experiment: Cytotoxicity against mouse L929 cells assessed as cell viability up to MIC 0.39 ug/ml after 24 hrs by MTT assay; format: cell-based; conditions: l929, 24 h
Klebsiella pneumoniae [10] = experiment: Antibacterial activity against Klebsiella pneumoniae after 24 hrs by spectrophotometric analysis; format: functional, organism-based; conditions: Klebsiella pneumoniae, 24 h; for IC50: read-out: IC50
Escherichia coli [11] = experiment: Antibacterial activity against Escherichia coli after 24 hrs by spectrophotometric analysis; format: functional, organism-based; conditions: Escherichia coli, 24 h; for IC50: read-out: IC50
L929 [12] = experiment: Cytotoxicity against mouse L929 cells assessed as cell morphological changes at 12.5 to 50 ug/ml after 24 hrs by giemsa staining based phase contrast microscopy; conditions: l929, 24 h
Klebsiella pneumoniae [13] = experiment: Antibacterial activity against Klebsiella pneumoniae by NCCLS two-fold dilution method; format: functional
Escherichia coli [14] = experiment: Antibacterial activity against Escherichia coli by NCCLS two-fold dilution method; format: functional
L929 [15] = experiment: Cytotoxicity against mouse L929 cells assessed as cell viability up to MIC 0.78 ug/ml after 24 hrs by MTT assay; format: cell-based; conditions: l929, 24 h

| Compound | MIC (Staphylococcus aureus [1]) [µg/mL] | MIC (Staphylococcus aureus [2]) [µg/mL] | IC50 (Staphylococcus aureus [2]) [µg/mL] | MIC (Staphylococcus aureus [3]) [µg/mL] | MIC (Staphylococcus aureus [4]) [µg/mL] | -logMIC (Staphylococcus aureus [5]) | MIC (Staphylococcus aureus [5]) [µg/mL] | MIC (Staphylococcus aureus [6]) [µg/mL] | IC50 (Staphylococcus aureus [6]) [µg/mL] | MIC (Staphylococcus aureus [7]) [µg/mL] | IC50 (Staphylococcus aureus [7]) [µg/mL] | MIC (Staphylococcus aureus [8]) [µg/mL] | IC50 (Staphylococcus aureus [8]) [µg/mL] | Activity (L929 [9]) | MIC (Klebsiella pneumoniae [10]) [µg/mL] | IC50 (Klebsiella pneumoniae [10]) [µg/mL] | MIC (Escherichia coli [11]) [µg/mL] | IC50 (Escherichia coli [11]) [µg/mL] | Activity (L929 [12]) | MIC (Klebsiella pneumoniae [13]) [µg/mL] | also measured |
| --- | --- | --- | --- | --- | --- | --- | --- | --- | --- | --- | --- | --- | --- | --- | --- | --- | --- | --- | --- | --- | --- |
| CCn1cc(C(=O)O)c(=O)c2cc(F)c(N3CCN(C(c4ccc(F)cc4)c4nnnn4C(C)(C)C)CC3)cc21 (stereo not drawn) | 0.78 (≈ 1.41 µM) | 0.7 (≈ 1.27 µM) | 0.2 (≈ 0.363 µM) | 0.78 (≈ 1.41 µM) | 12.5 (≈ 22.7 µM) | 5.548 | 0.78 (≈ 1.41 µM) | 0.5 (≈ 0.906 µM) | 0.2 (≈ 0.363 µM) | 12.5 (≈ 22.7 µM) | 10 (≈ 18.1 µM) | 0.9 (≈ 1.63 µM) | 0.3 (≈ 0.544 µM) | Non-toxic | – | – | – | – | – | – | – |
| CCn1cc(C(=O)O)c(=O)c2cc(F)c(N3CCN(C(c4ccco4)c4nnnn4C4CCCCC4)CC3)cc21 (stereo not drawn) | 1.56 (≈ 2.84 µM) | 1.1 (≈ 2 µM) | 0.6 (≈ 1.09 µM) | 0.78 (≈ 1.42 µM) | 25 (≈ 45.5 µM) | 5.847 | 0.78 (≈ 1.42 µM) | 0.88 (≈ 1.6 µM) | 0.4 (≈ 0.728 µM) | 8.2 (≈ 14.9 µM) | 3.7 (≈ 6.73 µM) | 0.45 (≈ 0.819 µM) | 0.22 (≈ 0.4 µM) | Non-toxic | 5.2 (≈ 9.46 µM) | 2.4 (≈ 4.37 µM) | 11.6 (≈ 21.1 µM) | 4.9 (≈ 8.92 µM) | Non-toxic | 6.25 (≈ 11.4 µM) | MIC (Escherichia coli [14]): 12.5 µg/mL (≈ 22.7 µM) |
| CCn1cc(C(=O)O)c(=O)c2cc(F)c(N3CCN(C(c4ccc(OC)c(OC)c4OC)c4nnnn4C4CCCCC4)CC3)cc21 (stereo not drawn) | 1.56 (≈ 2.4 µM) | 0.8 (≈ 1.23 µM) | 0.7 (≈ 1.08 µM) | 1.56 (≈ 2.4 µM) | 25 (≈ 38.5 µM) | 5.318 | 1.56 (≈ 2.4 µM) | 0.8 (≈ 1.23 µM) | 0.7 (≈ 1.08 µM) | 28.9 (≈ 44.5 µM) | 14.6 (≈ 22.5 µM) | 1.35 (≈ 2.08 µM) | 0.37 (≈ 0.569 µM) | Non-toxic | – | – | – | – | Non-toxic | – | – |
| CCn1cc(C(=O)O)c(=O)c2cc(F)c(N3CCN(C(c4ccncc4)c4nnnn4C(C)(C)C)CC3)cc21 (stereo not drawn) | 1.56 (≈ 2.92 µM) | 0.9 (≈ 1.68 µM) | 0.6 (≈ 1.12 µM) | 1.56 (≈ 2.92 µM) | 50 (≈ 93.5 µM) | 5.534 | 1.56 (≈ 2.92 µM) | 0.7 (≈ 1.31 µM) | 0.35 (≈ 0.655 µM) | 50 (≈ 93.5 µM) | 50 (≈ 93.5 µM) | 0.9 (≈ 1.68 µM) | 0.5 (≈ 0.935 µM) | Non-toxic | 26 (≈ 48.6 µM) | 24 (≈ 44.9 µM) | 27.7 (≈ 51.8 µM) | 20.5 (≈ 38.3 µM) | – | 25 (≈ 46.8 µM) | MIC (Escherichia coli [14]): 25 µg/mL (≈ 46.8 µM) |
| O=C(O)c1cn(C2CC2)c2cc(N3CCNCC3)c(F)cc2c1=O [CIPROFLOXACIN] | – | 20.2 (≈ 61 µM) | 16.7 (≈ 50.4 µM) | 0.19 (≈ 0.573 µM) | – | – | 0.78 (≈ 2.35 µM) | 0.4 (≈ 1.21 µM) | 0.2 (≈ 0.604 µM) | 20.2 (≈ 61 µM) | 16.7 (≈ 50.4 µM) | 0.9 (≈ 2.72 µM) | 0.3 (≈ 0.905 µM) | – | 0.049 (≈ 0.148 µM) | 0.02 (≈ 0.0604 µM) | – | – | – | 0.012 (≈ 0.0362 µM) | – |
| CCn1cc(C(=O)O)c(=O)c2cc(F)c(N3CCN(C(c4ccco4)c4nnnn4C(C)(C)C)CC3)cc21 (stereo not drawn) | 0.78 (≈ 1.49 µM) | 0.6 (≈ 1.15 µM) | 0.2 (≈ 0.382 µM) | 0.78 (≈ 1.49 µM) | 50 (≈ 95.5 µM) | – | 0.78 (≈ 1.49 µM) | 0.5 (≈ 0.955 µM) | 0.2 (≈ 0.382 µM) | 46.9 (≈ 89.6 µM) | 24.6 (≈ 47 µM) | 0.4 (≈ 0.764 µM) | 0.3 (≈ 0.573 µM) | Non-toxic | 10.1 (≈ 19.3 µM) | 5.3 (≈ 10.1 µM) | 4.2 (≈ 8.02 µM) | 2.9 (≈ 5.54 µM) | Non-toxic | 12.5 (≈ 23.9 µM) | Activity (L929 [15]): Non-toxic; MIC (Escherichia coli [14]): 6.25 µg/mL (≈ 11.9 µM) |
| CCn1cc(C(=O)O)c(=O)c2cc(F)c(N3CCN(C(c4ccccc4)c4nnnn4C4CCCCC4)CC3)cc21 (stereo not drawn) | 3.12 (≈ 5.57 µM) | 1.5 (≈ 2.68 µM) | 0.8 (≈ 1.43 µM) | 1.56 (≈ 2.79 µM) | 12.5 (≈ 22.3 µM) | 5.554 | 1.56 (≈ 2.79 µM) | 0.78 (≈ 1.39 µM) | 0.75 (≈ 1.34 µM) | 11.6 (≈ 20.7 µM) | 4.9 (≈ 8.76 µM) | 0.8 (≈ 1.43 µM) | 0.4 (≈ 0.715 µM) | Non-toxic | – | – | – | – | – | – | – |
